pIC50: −log10 of the molar value.
Molecular target: T1, Human CB2 receptors (Homo sapiens, UniProt P34972)
T1 construct: expressed in transfected cells; host or cells: CHO cells
Experiment: In vitro signaling assay: inhibition of forskolin-induced cAMP production in human CB2 receptor expressing CHO cells
Format: cell-based
Settings: inhibition of 10 μM forskolin-induced cAMP production, human CB2 receptors expressed CHO cells, cAMP EIA
Procedure: It was confirmed by the following experiment that the compound of formula (I) of the present invention has CB2 receptor agonist activity.
Method for the Experiment:
Human CB2 receptors expressed CHO cells were used for the assays. Cells were dispersed seeded in 96-well plates in a density of 5×10^4 cells/well, and were subjected to experiment the next day. After removing the culture media 1 mM isobutylmethylxanthine (IBMX) solution was added, and cells were incubated for 10 minutes at room temperature. Next, a mixture of 10 μM forskolin and the compound of the present invention was added. After additional incubation for 15 minutes at room temperature, the culture supernatant was discarded and 200 μl of lysis reagent (attached to a cAMP EIA) was added. The amounts of cAMP of the lysate were determined by a cAMP EIA kit (Amersham) under conditions of the forskolin-induced cAMP production. The compound of the present invention was dissolved in DMSO and the solution was diluted to adjust the final concentration of DMSO to 0.1%. IC50 values were calculated from the inhibitory ratio of the compound of the present invention toward the amount of the forskolin-induced cAMP production. By the same experiment using CHO cells, it was confirmed that this inhibitory effect toward cAMP production by the compound was mediated via the human CB2 receptors.

T1 sequence (P34972 whole entry): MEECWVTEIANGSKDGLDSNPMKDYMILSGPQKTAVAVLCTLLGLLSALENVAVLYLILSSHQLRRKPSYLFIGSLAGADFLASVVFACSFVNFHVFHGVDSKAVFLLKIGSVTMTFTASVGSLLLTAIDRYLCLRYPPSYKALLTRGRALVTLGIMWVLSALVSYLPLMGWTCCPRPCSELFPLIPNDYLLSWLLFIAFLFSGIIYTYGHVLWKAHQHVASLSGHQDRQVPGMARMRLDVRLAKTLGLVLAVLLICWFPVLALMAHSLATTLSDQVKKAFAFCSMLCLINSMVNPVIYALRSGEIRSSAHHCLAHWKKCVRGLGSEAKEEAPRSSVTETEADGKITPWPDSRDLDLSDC

| Structure (SMILES) | pIC50 |
| --- | --- |
| CC1(C)Cc2ccccc2/C(=C/C(=O)C2CCCCCC2)N1 [1(11), (Z)-2-(3,3-dimethyl-3,4-dihydro-(2H)-isoquinolin-1-ylidene)-1-cycloheptylethan-1-one] | 9.40 |
| O=C(/C=C1\NC2(CCOCC2)Cc2ccccc21)c1ccccc1 [1(33), (Z)-2-(spiro[3,4-dihydro-(2H)-isoquinolin-3,4′-3,4,5,6-tetrahydropyran]-1-ylidene)-1-phenylethan-1-one] | 9.10 |
| CC1(C)Cc2ccccc2/C(=C/C(=O)C2CCCCC2)N1 [compound 1] | 8.62 |
